Measured values: article PMC6691133, “Targeting PFKFB3 alleviates cerebral ischemia-reperfusion injury in mice” (Scientific Reports, 2019)

Target: T1, 6-phosphofructo-2-kinase/fructose-2,6-bisphosphatase-3 (PFKFB3) (Homo sapiens, UniProt Q16875)
T1 construct: Recombinant full length human PFKFB3 protein purified from Sf9 baculoviral system
Assay: ADP-Glo kinase assay with recombinant PFKFB3 (ATP + F6P)
Type: biochemical

T1 sequence (Q16875 whole entry): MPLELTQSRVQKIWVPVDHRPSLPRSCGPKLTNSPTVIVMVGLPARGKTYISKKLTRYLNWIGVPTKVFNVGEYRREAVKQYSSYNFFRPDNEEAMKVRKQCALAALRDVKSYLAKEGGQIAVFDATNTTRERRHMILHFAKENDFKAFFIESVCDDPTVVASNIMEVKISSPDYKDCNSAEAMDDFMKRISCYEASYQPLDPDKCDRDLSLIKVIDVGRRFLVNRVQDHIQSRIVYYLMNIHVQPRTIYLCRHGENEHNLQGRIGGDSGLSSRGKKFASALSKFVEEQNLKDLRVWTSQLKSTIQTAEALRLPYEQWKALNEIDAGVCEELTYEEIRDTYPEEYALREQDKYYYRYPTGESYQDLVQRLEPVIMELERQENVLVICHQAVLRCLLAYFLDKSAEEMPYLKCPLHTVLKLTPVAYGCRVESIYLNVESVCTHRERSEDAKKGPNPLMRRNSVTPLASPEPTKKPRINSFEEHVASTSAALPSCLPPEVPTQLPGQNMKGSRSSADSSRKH

IC50: 18 nM
SMILES: Cc1noc(C)c1Cn1cc(C#N)c2cc(Oc3ccc(NC(=O)[C@@H]4CCCN4)cc3)ccc21 [AZ67]
